Results from patent US5021427A, “Novel pyrrolizidine alkaloid” (The Board of Regents, The University of Texas System, priority 1988, dated 1991).
pIC50, pKi: −log10 of the molar value. Like-named read-outs stand apart in the source and are kept apart here.

Legend:
amyloglucosidase = molecular target: T1, amyloglucosidase (Aspergillus niger, UniProt P69328); assay: amyloglucosidase (alpha-glucosidase) inhibition, p-nitrophenyl-alpha-D-glucoside substrate; type: biochemical
T1 construct: purchased Sigma Chemical Company

beta-glucosidase = beta-glucosidase inhibition, p-nitrophenyl-glycoside substrate; type: biochemical, almonds
alpha-galactosidase = alpha-galactosidase inhibition; type: biochemical, Aspergillus niger
beta-galactosidase = beta-galactosidase inhibition; type: biochemical, bovine
alpha-mannosidase = molecular target: T2, alpha-mannosidase (Canavalia ensiformis, UniProt C0HJB3); assay: alpha-mannosidase inhibition; type: biochemical, jack bean
T2 construct: purchased Sigma Chemical Company

Beta-Mannosidase = Beta-Mannosidase (Aspergillus niger, UniProt Q9UUZ3); assay: beta-mannosidase inhibition; type: biochemical
intestinal sucrase = molecular target: T3, intestinal sucrase (Homo sapiens, UniProt P14410); assay: intestinal sucrase activity, sucrose as substrate; type: biochemical
T3 construct: from tissue
Description: (§1) (B) Sucrase and Maltase. Intestinal sucrase and maltase activities were determined by measuring the formation of reducing sugar from sucrose and maltitol, respectively. The reaction mixture contained 7.5 micromoles sodium citrate buffer, pH 6, 9 micromoles of substrate (sucrose or maltitol), and enzyme, in a final volume of 0.3 ml. […] For both enzymes, activity was proportional with time, and amount of protein. As described above for the arylglycosidases, inhibitors were preincubated with enzyme prior to the addition of substrate.

intestinal maltase = intestinal maltase activity, maltitol as substrate; type: biochemical
Description: as §1

glucosidase I = assay: processing glucosidase I, release of [3H]glucose from Glc3Man9GlcNAc; type: biochemical, mung bean
glucosidase II = assay: processing glucosidase II, release of p-nitrophenol from p-nitrophenyl-alpha-D-glucoside; type: biochemical, mung bean
[1] = tested on: human immunodeficiency virus (HIV-1); assay: replication of HIV-1 in tissue culture cells; type: cell-based
uninfected MDCK cells [2] = tested on: uninfected MDCK cells
Description: (§2) The cells then were incubated for 15-120 min with either [2-^3 H]mannose (20 micro Ci/ml) or [4,5-^3 H]leucine (10 micro Ci/ml) to label lipid-linked saccharides and cellular proteins, respectively. At the end of the labeling period, the medium was removed by aspiration, and the monolayers were washed 3 times with PB S. One ml of PBS was added to each well, the cells were dislodged by scraping, and were then quantitatively transferred to reaction tubes. Each well was washed with another 1 ml of PBS and this rinse was also added to the initial tube. […] For the incorporation of radiolabel into protein, cells were extracted with TCA at a final concentration of 20% in the presence of 500 micro g of bovine serum albumin. Following an overnight incubation at 4° C., precipitated protein was isolated by centrifugation. The precipitate was washed twice with 5% TCA, and once with absolute methanol, and then digested with Pronase as described above. Pronase-released radioactivity was measured by liquid scintillation counting.
(§3) Uninfected MDCK cells were grown in 6well Limbro tissue culture dishes.
(§4) confluency, australine was added to some wells to the final concentration
(§5) After a 2 hours incubation to allow the alkaloid to take
At the times shown, the medium
(§6) was removed by aspiration, and the monolayers were washed three times wit
(§7) PBS. The cells were released from the wells by scraping, placed in tubes,
(§8) and extracted with 20% TCA as described above. Radioactivity incorporated
(§9) into total cellular protein was determined after Pronase digestion by
liquid scintillation counting.

uninfected MDCK cells [3] = conditions: 50 micro g/ml, 60 min
Description: (§10) The cells then were incubated for 15-120 min with either [2-^3 H]mannose (20 micro Ci/ml) or [4,5-^3 H]leucine (10 micro Ci/ml) to label lipid-linked saccharides and cellular proteins, respectively. At the end of the labeling period, the medium was removed by aspiration, and the monolayers were washed 3 times with PB S. One ml of PBS was added to each well, the cells were dislodged by scraping, and were then quantitatively transferred to reaction tubes. Each well was washed with another 1 ml of PBS and this rinse was also added to the initial tube. Radioactivity incorporated into lipid-linked monosaccharides and oligosaccharides was determined after extraction with chloroform:methanol:water (1:1:1) and chloroform:methanol:water (10:10:3), respectively, as previously described (60).
(§11) Uninfected MDCK cells were grown in 6well Limbro tissue culture dishes. A
as §4
(§12) listed above. After a 2 hour incubation to allow the alkaloid to take
(§13) effect, [^3 H]mannose was added to a final concentration of 20 micro
(§14) Ci/ml, and the incubations were continued. At the times shown, the medium
as §6, §7
(§15) then sequentially extracted with chloroform:methanol:water (1:1:1) for
(§16) lipidlinked monosaccharides, and chloroform:methanol:water (10:10:3) for
(§17) lipidlinked oligosaccharides. The total radioactivity incorporated into
(§18) the lipidlinked sugars was determined by liquid scintillation counting.

uninfected MDCK cells [4] = assay: incorporation of [3H]mannose into lipid-linked saccharides
Description: as §10, §11, §4, §12, §13, §14, §6, §7, §15, §16, §17, §18

uninfected MDCK cells [5] = assay: incorporation of [3H]leucine into protein (protein synthesis)
Description: as §2, §3, §4, §5
At the times shown, the medium
as §6, §7, §8, §9
liquid scintillation counting.

[6] = tested on: influenza virus glycoproteins in infected MDCK cells; assay: glycoprotein processing in influenza virus-infected MDCK cells (Endo H-sensitive oligosaccharides); conditions: mannose-labeled glycopeptide, printed as 10 micro g/ml
[7] = tested on: influenza virus glycoproteins in infected MDCK cells; conditions: cited from earlier work
glycosidases = assay: glycosidase inhibitory activity against generally available glycosidases; type: biochemical
Text: GENERAL EX[…]. The alkaloids were monitored for purity by tlc on 0.25 mm silica gel plates developed with CHCl3 :MeOH:HN4 OH:H2 O (70:26:2:2) and detected by spraying with acetic anhydride followed by Ehrlich's reagent (21). Homogeneity was also checked by gc of the TMS derivatives, prepared by treatment with MSTFA in pyridine, on a Hewlett-Packard 5830 instrument equipped with a flame-ionization detector, on-column injector, and a 30-m×0.32-mm i.d. SE-30 fused silica column. Low resolution electron and ammonia chemical ionization mass spectra were obtained on a VG Micromass 7070 mass spectrometer; high resolution mass measurements were determined on the same instrument. Optical rotations were measured in a 1-dm cell on a Perkin-Elmer 241 automatic polarimeter. Nuclear magnetic resonance spectra were determined in D2 O on a Nicolet NTC 200FT spectrometer with software package at 200 MHz (^1 H) and at 50.3 MHz (^13 C) using 3-(trimethylsilyl)-1-propanesulfonic acid (TSP) as an internal standard. Multiplicities for ^13 C signals were determined by application of the carbon attached proton test (CAPT) sequence. Preparative centrifugal tlc was performed on a Chromatotron Model 7924 (Harrison Research, Palo Alto, Calif.). Enzyme assay methods have been previously described (67), Melting points are uncorrected.

[8] = concentrations up to 500 micro M

T2 sequence (C0HJB3 whole entry): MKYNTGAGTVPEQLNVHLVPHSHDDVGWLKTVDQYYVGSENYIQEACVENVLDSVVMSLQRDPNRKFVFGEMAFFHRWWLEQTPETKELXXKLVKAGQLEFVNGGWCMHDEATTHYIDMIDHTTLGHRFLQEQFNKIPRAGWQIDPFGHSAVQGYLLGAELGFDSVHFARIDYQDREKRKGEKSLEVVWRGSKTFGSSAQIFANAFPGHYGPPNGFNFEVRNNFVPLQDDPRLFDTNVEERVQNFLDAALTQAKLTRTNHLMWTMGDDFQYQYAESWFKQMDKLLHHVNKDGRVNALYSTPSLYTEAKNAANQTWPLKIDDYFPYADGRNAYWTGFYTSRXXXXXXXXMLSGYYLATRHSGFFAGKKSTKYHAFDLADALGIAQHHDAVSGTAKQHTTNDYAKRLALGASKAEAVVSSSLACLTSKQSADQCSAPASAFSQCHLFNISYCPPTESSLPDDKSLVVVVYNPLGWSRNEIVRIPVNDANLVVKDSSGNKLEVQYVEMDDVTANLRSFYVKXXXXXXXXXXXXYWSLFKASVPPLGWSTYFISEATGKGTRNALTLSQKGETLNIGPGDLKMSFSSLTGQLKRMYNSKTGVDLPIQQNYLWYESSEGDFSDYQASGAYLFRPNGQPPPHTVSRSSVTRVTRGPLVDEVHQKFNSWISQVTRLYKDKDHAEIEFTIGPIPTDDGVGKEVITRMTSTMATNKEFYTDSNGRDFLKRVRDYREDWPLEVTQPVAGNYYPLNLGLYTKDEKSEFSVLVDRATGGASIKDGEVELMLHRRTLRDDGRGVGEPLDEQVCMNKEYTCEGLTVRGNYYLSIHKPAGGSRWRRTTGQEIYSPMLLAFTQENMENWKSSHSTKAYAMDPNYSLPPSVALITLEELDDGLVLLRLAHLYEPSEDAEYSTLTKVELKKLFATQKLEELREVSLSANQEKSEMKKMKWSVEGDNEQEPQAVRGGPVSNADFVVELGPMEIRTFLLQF
Sequence of Beta-Mannosidase (Q9UUZ3 22-931): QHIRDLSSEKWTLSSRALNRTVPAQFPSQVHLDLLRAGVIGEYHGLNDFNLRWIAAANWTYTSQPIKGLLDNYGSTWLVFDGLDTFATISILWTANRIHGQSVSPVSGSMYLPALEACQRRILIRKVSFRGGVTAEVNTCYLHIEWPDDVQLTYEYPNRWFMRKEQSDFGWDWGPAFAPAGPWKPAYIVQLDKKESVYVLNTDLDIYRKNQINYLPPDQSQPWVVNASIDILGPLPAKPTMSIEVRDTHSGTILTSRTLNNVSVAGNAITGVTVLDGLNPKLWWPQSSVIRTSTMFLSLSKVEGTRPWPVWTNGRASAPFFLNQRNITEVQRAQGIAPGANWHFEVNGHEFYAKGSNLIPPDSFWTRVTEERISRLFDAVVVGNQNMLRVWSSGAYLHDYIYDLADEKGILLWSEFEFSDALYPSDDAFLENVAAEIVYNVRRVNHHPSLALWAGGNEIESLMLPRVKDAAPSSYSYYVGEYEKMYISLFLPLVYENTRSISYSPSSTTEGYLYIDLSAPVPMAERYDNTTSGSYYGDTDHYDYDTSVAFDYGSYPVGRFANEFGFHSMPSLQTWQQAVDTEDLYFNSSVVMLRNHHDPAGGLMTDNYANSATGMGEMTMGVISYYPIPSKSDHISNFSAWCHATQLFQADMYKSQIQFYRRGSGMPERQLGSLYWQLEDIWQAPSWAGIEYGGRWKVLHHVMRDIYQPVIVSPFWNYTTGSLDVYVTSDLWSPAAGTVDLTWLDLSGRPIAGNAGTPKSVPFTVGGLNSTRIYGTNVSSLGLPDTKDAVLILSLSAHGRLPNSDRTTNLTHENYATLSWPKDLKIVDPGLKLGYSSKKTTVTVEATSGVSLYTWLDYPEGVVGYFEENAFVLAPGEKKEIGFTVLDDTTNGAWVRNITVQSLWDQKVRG
T1 sequence (P69328 25-640): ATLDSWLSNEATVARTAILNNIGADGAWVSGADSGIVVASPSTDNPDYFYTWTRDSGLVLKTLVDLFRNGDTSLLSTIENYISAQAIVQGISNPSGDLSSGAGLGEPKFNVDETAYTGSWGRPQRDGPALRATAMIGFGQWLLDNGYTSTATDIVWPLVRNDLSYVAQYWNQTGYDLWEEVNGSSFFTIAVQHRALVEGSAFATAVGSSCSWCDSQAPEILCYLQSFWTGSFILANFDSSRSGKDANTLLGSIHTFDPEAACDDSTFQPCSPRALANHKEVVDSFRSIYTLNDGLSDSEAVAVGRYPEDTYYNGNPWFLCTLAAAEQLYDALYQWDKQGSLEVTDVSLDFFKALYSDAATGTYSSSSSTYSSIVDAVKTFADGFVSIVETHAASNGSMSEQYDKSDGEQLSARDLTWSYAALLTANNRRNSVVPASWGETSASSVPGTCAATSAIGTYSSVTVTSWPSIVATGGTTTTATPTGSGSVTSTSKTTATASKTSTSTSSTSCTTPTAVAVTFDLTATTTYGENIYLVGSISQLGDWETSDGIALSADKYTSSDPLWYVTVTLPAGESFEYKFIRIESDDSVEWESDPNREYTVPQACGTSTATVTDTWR
T3 sequence (P14410 whole entry): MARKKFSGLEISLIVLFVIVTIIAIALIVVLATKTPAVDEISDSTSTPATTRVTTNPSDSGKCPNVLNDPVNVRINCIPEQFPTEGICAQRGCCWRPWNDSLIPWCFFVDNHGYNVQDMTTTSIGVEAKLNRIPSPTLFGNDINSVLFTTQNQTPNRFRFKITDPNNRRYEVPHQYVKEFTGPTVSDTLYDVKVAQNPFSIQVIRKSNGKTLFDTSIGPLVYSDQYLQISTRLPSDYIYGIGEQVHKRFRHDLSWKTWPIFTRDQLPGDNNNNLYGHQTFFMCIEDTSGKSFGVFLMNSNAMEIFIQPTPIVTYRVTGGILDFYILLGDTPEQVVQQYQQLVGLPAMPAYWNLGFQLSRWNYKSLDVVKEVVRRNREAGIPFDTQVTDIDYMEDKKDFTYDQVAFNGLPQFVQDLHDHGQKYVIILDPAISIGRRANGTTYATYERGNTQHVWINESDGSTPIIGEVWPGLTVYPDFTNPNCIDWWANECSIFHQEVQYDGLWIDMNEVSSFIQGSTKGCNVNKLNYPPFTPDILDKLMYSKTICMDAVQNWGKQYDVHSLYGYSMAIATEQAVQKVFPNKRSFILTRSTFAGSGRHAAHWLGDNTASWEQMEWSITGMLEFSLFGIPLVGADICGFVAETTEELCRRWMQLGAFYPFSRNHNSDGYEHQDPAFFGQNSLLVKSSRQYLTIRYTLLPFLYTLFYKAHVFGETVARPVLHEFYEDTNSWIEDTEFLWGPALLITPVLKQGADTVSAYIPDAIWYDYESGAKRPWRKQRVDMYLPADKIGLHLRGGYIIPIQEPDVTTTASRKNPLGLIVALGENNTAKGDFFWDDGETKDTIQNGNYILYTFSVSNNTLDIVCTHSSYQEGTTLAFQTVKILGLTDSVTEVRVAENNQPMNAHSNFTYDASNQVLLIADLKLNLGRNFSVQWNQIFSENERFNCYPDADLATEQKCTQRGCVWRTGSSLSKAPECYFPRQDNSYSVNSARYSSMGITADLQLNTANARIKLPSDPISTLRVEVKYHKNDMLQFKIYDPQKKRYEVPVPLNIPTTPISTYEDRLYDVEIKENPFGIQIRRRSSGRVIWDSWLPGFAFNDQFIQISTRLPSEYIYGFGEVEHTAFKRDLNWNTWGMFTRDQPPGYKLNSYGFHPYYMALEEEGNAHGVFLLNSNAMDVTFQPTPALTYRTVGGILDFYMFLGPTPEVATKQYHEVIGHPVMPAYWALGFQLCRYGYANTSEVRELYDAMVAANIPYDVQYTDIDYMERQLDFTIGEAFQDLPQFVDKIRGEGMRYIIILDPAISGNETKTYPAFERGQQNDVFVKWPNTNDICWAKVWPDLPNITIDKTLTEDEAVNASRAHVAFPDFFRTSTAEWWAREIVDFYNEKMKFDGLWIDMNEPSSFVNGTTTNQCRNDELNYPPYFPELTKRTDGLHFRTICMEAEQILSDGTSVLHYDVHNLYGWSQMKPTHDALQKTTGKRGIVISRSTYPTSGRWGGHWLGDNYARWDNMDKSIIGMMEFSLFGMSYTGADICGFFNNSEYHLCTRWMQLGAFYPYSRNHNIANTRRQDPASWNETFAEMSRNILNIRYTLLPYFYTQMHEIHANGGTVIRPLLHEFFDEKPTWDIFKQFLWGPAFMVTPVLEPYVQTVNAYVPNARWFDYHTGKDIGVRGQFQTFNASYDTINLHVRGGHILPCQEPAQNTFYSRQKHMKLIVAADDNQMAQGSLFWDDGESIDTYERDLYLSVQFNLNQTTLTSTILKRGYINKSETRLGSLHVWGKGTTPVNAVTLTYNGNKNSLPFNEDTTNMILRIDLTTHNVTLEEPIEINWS

OC[C@@H]1[C@@H](O)[C@H](O)[C@H]2[C@@H](O)CCN21 [australine, (1R, 2R, 3R, 7S, 7aR)-3-hydroxymethyl-1,2,7-trihydroxypyrrolizidine]
pKi (amyloglucosidase; Example 2, p-nitrophenyl-alpha-D-glucoside substrate, read-out: apparent Ki): 5.24
type of inhibition (amyloglucosidase; Lineweaver-Burk, 0.5 and 1 micro g/ml australine): competitive
inhibition of beta-glucosidase (beta-glucosidase): No significant inhibition
inhibition of beta-glucosidase activity (beta-glucosidase; at 66 micro M): less than 5%
inhibition of alpha-galactosidase (alpha-galactosidase): No significant inhibition
effect on alpha-galactosidase (alpha-galactosidase; [8]): no apparent effect
inhibition of beta-galactosidase (beta-galactosidase): No significant inhibition
effect on beta-galactosidase (beta-galactosidase; [8]): no apparent effect
inhibition of alpha-mannosidase (alpha-mannosidase): No significant inhibition
effect on alpha-mannosidase (alpha-mannosidase; [8]): no apparent effect
inhibition of beta-mannosidase (Beta-Mannosidase): No significant inhibition
effect on beta-mannosidase (Beta-Mannosidase; [8]): no apparent effect
pKi (intestinal sucrase): ~4.55
pKi (intestinal maltase): ~4.46
pKi (glucosidase I): ~4.70
activity against glucosidase II (glucosidase II; [8]): no activity
inhibition of HIV-1 replication [1]: inhibited the growth of the virus, but this alkaloid was not as effective as an inhibitor as was castanospermine
Radioactivity incorporated into protein (uninfected MDCK cells [2]; 50 micro ug/ml, 30 min): 9252 cpm
Radioactivity incorporated into protein (uninfected MDCK cells [2]; 100 micro ug/ml, 30 min): 8304 cpm
Radioactivity incorporated into protein (uninfected MDCK cells [2]; 100 micro ug/ml, 60 min): 1588 cpm
Radioactivity incorporated into protein (uninfected MDCK cells [2]; 100 micro ug/ml, 90 min): 25636 cpm
Radioactivity incorporated into protein (uninfected MDCK cells [2]; 100 micro ug/ml, 120 min): 32008 cpm
Radioactivity, Lipid-linked oligosaccharides (uninfected MDCK cells [3]): 1077 cpm
incorporation of [3H]mannose into lipid-linked oligosaccharide (uninfected MDCK cells [4]; 50-500 micro g/ml): appeared to be stimulated
Radioactivity, Lipid-linked monosaccharides (uninfected MDCK cells [4]; 50 micro g/ml, 15 min): 97 cpm
Radioactivity, Lipid-linked oligosaccharides (uninfected MDCK cells [4]; 50 micro g/ml, 15 min): 1672 cpm
Radioactivity, Lipid-linked monosaccharides (uninfected MDCK cells [4]; 50 micro g/ml, 30 min): 122 cpm
Radioactivity, Lipid-linked oligosaccharides (uninfected MDCK cells [4]; 50 micro g/ml, 30 min): 5021 cpm
Radioactivity, Lipid-linked monosaccharides (uninfected MDCK cells [4]; 50 micro g/ml, 60 min): 229 cpm
Radioactivity, Lipid-linked monosaccharides (uninfected MDCK cells [4]; 100 micro g/ml, 15 min): 101 cpm
Radioactivity, Lipid-linked oligosaccharides (uninfected MDCK cells [4]; 100 micro g/ml, 15 min): 2336 cpm
Radioactivity, Lipid-linked monosaccharides (uninfected MDCK cells [4]; 100 micro g/ml, 30 min): 151 cpm
Radioactivity, Lipid-linked oligosaccharides (uninfected MDCK cells [4]; 100 micro g/ml, 30 min): 5335 cpm
Radioactivity, Lipid-linked monosaccharides (uninfected MDCK cells [4]; 100 micro g/ml, 60 min): 244 cpm
Radioactivity, Lipid-linked oligosaccharides (uninfected MDCK cells [4]; 100 micro g/ml, 60 min): 1104 cpm
Radioactivity, Lipid-linked monosaccharides (uninfected MDCK cells [4]; 250 micro g/ml, 15 min): 107 cpm
Radioactivity, Lipid-linked oligosaccharides (uninfected MDCK cells [4]; 250 micro g/ml, 15 min): 2073 cpm
Radioactivity, Lipid-linked monosaccharides (uninfected MDCK cells [4]; 250 micro g/ml, 30 min): 115 cpm
Radioactivity, Lipid-linked oligosaccharides (uninfected MDCK cells [4]; 250 micro g/ml, 30 min): 5661 cpm
Radioactivity, Lipid-linked monosaccharides (uninfected MDCK cells [4]; 250 micro g/ml, 60 min): 212 cpm
Radioactivity, Lipid-linked oligosaccharides (uninfected MDCK cells [4]; 250 micro g/ml, 60 min): 995 cpm
Radioactivity, Lipid-linked monosaccharides (uninfected MDCK cells [4]; 500 micro g/ml, 15 min): 96 cpm
Radioactivity, Lipid-linked oligosaccharides (uninfected MDCK cells [4]; 500 micro g/ml, 15 min): 2957 cpm
Radioactivity, Lipid-linked monosaccharides (uninfected MDCK cells [4]; 500 micro g/ml, 30 min): 178 cpm
Radioactivity, Lipid-linked oligosaccharides (uninfected MDCK cells [4]; 500 micro g/ml, 30 min): 6167 cpm
Radioactivity, Lipid-linked monosaccharides (uninfected MDCK cells [4]; 500 micro g/ml, 60 min): 236 cpm
Radioactivity, Lipid-linked oligosaccharides (uninfected MDCK cells [4]; 500 micro g/ml, 60 min): 1108 cpm
Radioactivity incorporated into protein (uninfected MDCK cells [5]; 50 micro ug/ml, 60 min): 16572 cpm
Radioactivity incorporated into protein (uninfected MDCK cells [5]; 50 micro ug/ml, 90 min): 23341 cpm
Radioactivity incorporated into protein (uninfected MDCK cells [5]; 50 micro ug/ml, 120 min): 33704 cpm
effect on overall rate of protein synthesis (uninfected MDCK cells [5]; 50 to 500 micro g/ml, times up to 120 min): little effect
Radioactivity incorporated into protein (uninfected MDCK cells [5]; 250 micro ug/ml, 30 min): 8064 cpm
Radioactivity incorporated into protein (uninfected MDCK cells [5]; 250 micro ug/ml, 60 min): 13604 cpm
Radioactivity incorporated into protein (uninfected MDCK cells [5]; 250 micro ug/ml, 90 min): 27776 cpm
Radioactivity incorporated into protein (uninfected MDCK cells [5]; 250 micro ug/ml, 120 min): 36140 cpm
Radioactivity incorporated into protein (uninfected MDCK cells [5]; 500 micro ug/ml, 30 min): 9124 cpm
Radioactivity incorporated into protein (uninfected MDCK cells [5]; 500 micro ug/ml, 60 min): 15648 cpm
Radioactivity incorporated into protein (uninfected MDCK cells [5]; 500 micro ug/ml, 90 min): 26060 cpm
Radioactivity incorporated into protein (uninfected MDCK cells [5]; 500 micro ug/ml, 120 min): 32704 cpm
Endo H-released proportion [6]: 55%

O[C@H]1[C@H](O)[C@@H](O)CN2CC[C@H](O)[C@H]12 [castanospermine, reference compound]
pKi (amyloglucosidase; Example 1, read-out: Ki): 5.10
inhibition of beta-glucosidase (beta-glucosidase): inhibited
pIC50 (beta-glucosidase; read-out: level which inhibited 50% of the beta-glucosidase activity): 4.18
pKi (intestinal sucrase): > 6.00
pKi (intestinal maltase): > 6.00
pKi (glucosidase I): ~6.00
inhibition of glucosidase II (glucosidase II): inhibited by micromolar amounts
concentration producing the same degree of inhibition (increased proportion of Endo H-susceptible glycopeptides) as 500 micro g/ml australine [7]: 10 micro g/ml

OC[C@H]1NCC[C@@H](O)[C@@H]1O [fagomine, 1,2,5-trideoxy-1,5-imino-D-arabino-hexitol, reference compound]
glycosidase inhibitory activity against alpha-glucosidase (amyloglucosidase; commercially available enzyme): No significant glycosidase inhibitory activity
inhibition of beta-glucosidase (beta-glucosidase): No significant glycosidase inhibitory activity
inhibition of alpha-galactosidase (alpha-galactosidase): No significant glycosidase inhibitory activity
inhibition of beta-galactosidase (beta-galactosidase): No significant glycosidase inhibitory activity
inhibition of alpha-mannosidase (alpha-mannosidase): No significant glycosidase inhibitory activity
inhibition of beta-mannosidase (Beta-Mannosidase): No significant glycosidase inhibitory activity
glycosidase inhibitory activity (glycosidases): no inhibitory activity

OC[C@@H]1[C@@H]2[C@H](O)CCN2C[C@H]1O [rosmarinecine]
glycosidase inhibitory activity (glycosidases): lack glycosidase inhibitory activity
